In patent publication US12552800B2, “Compounds for diagnosis” (AC IMMUNE SA, priority 2020, dated 2026):

Molecular target: T1, PD brain-derived a-syn aggregates (Homo sapiens, UniProt P37840)
T1 construct: from tissue; host or cells: human PD donor brain, sarkosyl-insoluble 100,000 x g pellet
Experiment: Micro-radiobinding competition assay against Example-1 [^3H-1] (Table 8)
Type: binding
Conditions: for Competition at 100 nM (%): 100 nM non-radiolabelled example compound vs Example-1 [^3H-1] ligand; for Competition at 100 nM (%) / Competition at 1 μM (%): human PD brain-derived a-syn aggregates; for Competition at 1 μM (%): 1 μM non-radiolabelled example compound vs Example-1 [^3H-1] ligand
Experimental: PD brain-derived a-syn aggregates were spotted onto microarray slides. The slides were incubated with the Example-1 [^3H-1] at 6 nM or 20 nM and the example compounds (non-radiolabelled) at 1 μM and 100 nM. In some cases, the non-radiolabelled example compounds were further assessed for a range of different concentrations, varying from 0.05 nM to 2 μM. After incubation, slides were washed and scanned by a real-time autoradiography system (BeaQuant, ai4R). Quantification of the signal was performed by using the Beamage image analysis software (ai4R). […] All measurements were performed with at least two technical replicates. For compounds tested in more than one experiment, the mean of the replicates or K; values in independent experiments is reported.
Results: Example compounds were assessed for their potency to compete with the binding of Example-1 [^3H-1] ligand to PD patient brain-derived a-syn aggregates. Results of the micro-radiobinding competition assay for the example compounds tested are shown in Table 8 as: % competition at 1 μM and 100 nM.

Row | SMILES | Competition at 100 nM (%) | Competition at 1 μM (%) | Ki (mean of Ki values in independent experiments using PD brain-derived homogenates from two different donors) [nM]
1 | Cc1c2c(nn1-c1ccc(N3CCCC3)nc1)CN(c1cccc(F)n1)C2=O [Example 144] | 49 | 68 | –
2 | COc1ccccc1N1Cc2nn(-c3ccc(N4CC[C@H](F)C4)nc3)cc2C1=O [Example 37] | 37 | – | –
3 | O=C1c2cn(-c3ccc(N4CC[C@H](F)C4)nc3)nc2CN1c1cncc(F)c1 [Example 92] | 32 | 73 | –
4 | O=C1c2cn(-c3ccc(N4CC[C@@H](F)C4)nc3)nc2CN1c1ccccc1F [Example 69] | 16 | 48 | –
5 | O=C1c2cn(-c3ccc(N4CC[C@@H](F)C4)nc3)nc2CN1c1cccnn1 [Example 152] | 39 | 86 | –
6 | O=C1c2cn(-c3ccc(N4CCOCC4)nc3)nc2CN1c1nccnc1F [Example 45] | 78 | 92 | 52
7 | CC(C)c1ccc(-n2cc3c(n2)CN(c2cccc(F)n2)C3=O)cn1 [Example 157] | 21 | 43 | –
8 | O=C1c2cn(-c3ccc(N4CC[C@@H](F)C4)cn3)nc2CN1c1cccnc1 [Example 66] | 72 | 92 | –
9 | O=C1c2cn(-c3ccc(N4CC[C@@H](F)C4)nc3)nc2CN1c1cncs1 [Example 126] | 75 | 83 | –
10 | Cc1ccccc1N1Cc2nn(-c3ccc(N4CC[C@H](F)C4)nc3)cc2C1=O [Example 32] | 16 | 25 | –
11 | N#Cc1cc(N2Cc3nn(-c4ccc(N5CCCC5)nc4)cc3C2=O)ccc1F [Example 46] | 61 | – | –
12 | N#Cc1ccc(N2Cc3nn(-c4ccc(N5CC[C@@H](F)C5)nc4)cc3C2=O)cc1 [Example 56] | 93 | – | –
13 | O=C1c2cn(-c3ccc(N4CC[C@H](F)C4)nc3)nc2CN1c1cccnc1O [Example 168] | 30 | 36 | –
14 | Cc1cccc(N2Cc3nn(-c4ccc(N5CC[C@@H](F)C5)nc4)cc3C2=O)c1 [Example 61] | 53 | 80 | –
15 | Cc1ccc(N2Cc3nn(-c4ccc(N5CC[C@H](F)C5)nc4)cc3C2=O)nc1 [Example 112] | 85 | 105 | –
16 | N#Cc1ccc(N2Cc3nn(-c4ccc(N5CC[C@H](F)C5)nc4)cc3C2=O)nc1 [Example 31] | 86 | – | –
17 | N#Cc1ccnc(N2Cc3nn(-c4ccc(N5CC[C@@H](F)C5)nc4)cc3C2=O)c1 [Example 86] | 64 | – | –
18 | O=C1c2cn(-c3ccc(N4CC[C@H](F)C4)nc3)nc2CN1c1ccns1 [Example 127] | 71 | 86 | –
19 | Cn1ccc(-n2cc3c(n2)CN(c2cccc(F)n2)C3=O)n1 [Example 145] | 46 | 76 | –
20 | Cc1ccc(N2Cc3nn(-c4ccc(N5CC[C@@H](F)C5)nc4)cc3C2=O)cc1 [Example 60] | 70 | 71 | –
21 | COc1cccc(N2Cc3nn(-c4ccc(N5CC[C@@H](F)C5)nc4)cc3C2=O)c1 [Example 34] | 80 | 89 | –
22 | COc1ccnc(N2Cc3nn(-c4ccc(N5CC[C@@H](F)C5)nc4)cc3C2=O)c1 [Example 76] | 69 | 93 | –
23 | Cn1cc(N2Cc3nn(-c4ccc(N5CC(F)C5)nc4)cc3C2=O)cn1 [Example 124] | 61 | 98 | –
24 | CN(C)c1ccc(-n2cc3c(n2)CN(c2cccnc2)C3=O)cn1 [Example 135] | 67 | 96 | –
25 | Cc1ccc(N2Cc3nn(-c4ccc(N5CC[C@H](F)C5)nc4)cc3C2=O)cn1 [Example 11] | 50 | 98 | –
26 | Cc1cnccc1N1Cc2nn(-c3ccc(N4CC[C@H](F)C4)nc3)cc2C1=O [Example 123] | 32 | 58 | –

Row | SMILES | Competition at 100 nM (%) | Competition at 1 μM (%) | Ki (mean of Ki values in independent experiments using PD brain-derived homogenates from two different donors) [nM]
27 | O=C1c2cn(-c3ccc(N4CC[C@@H](F)C4)nc3)nc2CN1c1ccc(F)cc1 [Example 63] | 79 | 96 | –
28 | N#Cc1cccc(N2Cc3nn(-c4ccc(N5CC[C@@H](F)C5)nc4)cc3C2=O)n1 [Example 79] | 74 | – | –
29 | N#Cc1ccc(N2Cc3nn(-c4ccc(N5CC[C@H](F)C5)nc4)cc3C2=O)cc1 [Example 59] | 86 | – | –
30 | N#Cc1ccc(-n2cc3c(n2)CN(c2cncc(F)n2)C3=O)cn1 [Example 155] | 51 | 94 | –
31 | O=C1c2cn(-c3ccc(N4CC[C@H](F)C4)nc3)nc2CN1c1cncnc1 [Example 16] | 32 | 70 | –
32 | O=C1c2cn(-c3ccc(N4CC[C@@H](F)C4)nc3)nc2CN1c1cccc(O)n1 [Example 164] | 44 | 87 | –
33 | Cc1c2c(nn1-c1ccc(N3CC[C@@H](F)C3)nc1)CN(c1cccnc1)C2=O [Example 52] | 26 | 29 | –
34 | CC(C)Oc1ccc(-n2cc3c(n2)CN(c2cccc(F)n2)C3=O)cn1 [Example 160] | 51 | 73 | –
35 | Cc1cc(N2Cc3nn(-c4ccc(N5CC[C@@H](F)C5)nc4)cc3C2=O)ccn1 [Example 102] | 59 | 68 | –
36 | Cn1cc(N2Cc3nn(-c4ccc(N5CCC[C@H](F)C5)nc4)cc3C2=O)cn1 [Example 121] | 40 | 84 | –
37 | O=C1c2cn(-c3ccc(N4CC[C@@H](F)C4)nc3)nc2CN1c1ccccc1O [Example 175] | 32 | 65 | –
38 | COc1ccc(N2Cc3nn(-c4ccc(N5CC[C@@H](F)C5)nc4)cc3C2=O)cn1 [Example 8] | 67 | 91 | –
39 | N#Cc1ccc(-n2cc3c(n2)CN(c2cccc(F)n2)C3=O)cn1 [Example 156] | 80 | 85 | –
40 | N#Cc1ccc(N2Cc3nn(-c4ccc(N5CCCC5)nc4)cc3C2=O)cc1F [Example 55] | 11 | 38 | –
41 | O=C1c2cn(-c3ccc(N4CC[C@H](F)C4)nc3)nc2CN1c1ccncc1O [Example 173] | 12 | 54 | –
42 | O=C1c2cn(-c3ccc(N4CC[C@H](F)C4)nc3)nc2CN1c1ccnc(O)c1 [Example 172] | 44 | 85 | –
43 | Cn1ccc(N2Cc3nn(-c4ccc(N5CC[C@H](F)C5)nc4)cc3C2=O)n1 [Example 118] | 61 | 94 | –
44 | Cc1ccnc(N2Cc3nn(-c4ccc(N5CC[C@H](F)C5)nc4)cc3C2=O)c1 [Example 82] | 84 | – | –
45 | O=C1c2cn(-c3ccc(N4CC[C@H](F)C4)nc3)nc2CN1c1ccc(O)cn1 [Example 165] | 88 | 107 | –
46 | Cc1c2c(nn1-c1ccc(N3CC[C@H](F)C3)nc1)CN(c1cccnc1)C2=O [Example 53] | 27 | 54 | –
47 | Cc1cccc(N2Cc3nn(-c4ccc(N5CC[C@H](F)C5)nc4)cc3C2=O)c1 [Example 38] | 70 | – | –
48 | COc1cc(N2Cc3nn(-c4ccc(N5CC[C@H](F)C5)nc4)cc3C2=O)ccn1 [Example 106] | 95 | 100 | –
49 | COc1ccc(-n2cc3c(n2)CN(c2cccc(F)n2)C3=O)cn1 [Example 159] | 46 | 67 | –
50 | O=C1c2cn(-c3ccc(NC4CC(F)C4)nc3)nc2CN1c1ccccn1 (stereo not drawn) [Example 89] | 29 | 75 | –
51 | Cc1ccc(N2Cc3nn(-c4ccc(N5CC[C@H](F)C5)nc4)cc3C2=O)cc1 [Example 35] | 73 | – | –
